System: influenza virus A/Puerto Rico/8/34 (H1N1)
Design: species or system BALB/cA Jcl [SPF] mice
Conditions: mouse, in vivo, iv

CCC(CC)[C@H](NC(C)=O)[C@@H]1[C@H](O)[C@@H](C(=O)O)C[C@H]1N=C(N)N [peramivir, reference compound]
survival rate: 20%
